Calls of active or inactive are those of the source.
Columns and labels:
[1] = target: T1, Corticotropin-releasing factor receptor 2/Corticotropin-releasing factor-binding protein (Homo sapiens, UniProt P24387+Q13324); assay: Dose Response confirmation of uHTS hits for small molecule antagonists of the CRF-binding protein and CRF-R2 receptor complex.; assay type: functional; details: read-out: IC50_Mean
T1 sequence (Q13324 whole entry): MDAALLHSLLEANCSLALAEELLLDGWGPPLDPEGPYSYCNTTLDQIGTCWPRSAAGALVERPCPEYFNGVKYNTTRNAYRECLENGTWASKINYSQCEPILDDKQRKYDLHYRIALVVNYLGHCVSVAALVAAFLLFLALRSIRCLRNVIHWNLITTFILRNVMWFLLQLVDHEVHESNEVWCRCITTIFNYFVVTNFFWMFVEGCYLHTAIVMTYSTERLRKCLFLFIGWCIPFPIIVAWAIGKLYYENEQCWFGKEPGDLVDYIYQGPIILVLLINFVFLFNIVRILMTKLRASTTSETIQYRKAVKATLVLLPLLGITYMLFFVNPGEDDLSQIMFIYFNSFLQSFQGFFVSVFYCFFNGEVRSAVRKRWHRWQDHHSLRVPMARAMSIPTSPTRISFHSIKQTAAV
T1 sequence (P24387 whole entry): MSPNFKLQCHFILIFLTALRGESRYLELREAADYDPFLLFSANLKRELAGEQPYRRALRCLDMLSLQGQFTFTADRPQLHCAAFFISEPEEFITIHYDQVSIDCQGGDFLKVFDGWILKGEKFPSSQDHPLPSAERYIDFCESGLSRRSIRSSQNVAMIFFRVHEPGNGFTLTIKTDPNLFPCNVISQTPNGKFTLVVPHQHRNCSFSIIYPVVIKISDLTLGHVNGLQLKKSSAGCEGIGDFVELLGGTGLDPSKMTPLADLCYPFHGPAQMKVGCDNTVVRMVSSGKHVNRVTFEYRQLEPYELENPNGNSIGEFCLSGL

[2] = target: T1, Corticotropin-releasing factor receptor 2/Corticotropin-releasing factor-binding protein; assay: activators of CRF receptor 2 with binding protein – uHTS hits, confirmation (AID 602473); assay type: functional; details: read-out: EC50_Mean
[3] = CRF-BP/CRF-R2 complex antagonists, dose response, cell-based, uHTS hits, 384-well (AID 651639); assay type: functional, Homo sapiens; details: read-out: IC50_Mean
[4] = target: T2, Rac GTPase-activating protein 1 (Homo sapiens, UniProt Q9H0H5); assay: MgcRacGAP GTPase-activating activity inhibitors, confirmation, biochemical, ADP Hunter fluorescence, primary and confirmatory (AID 624330); assay type: functional
T2 sequence (Q9H0H5 whole entry): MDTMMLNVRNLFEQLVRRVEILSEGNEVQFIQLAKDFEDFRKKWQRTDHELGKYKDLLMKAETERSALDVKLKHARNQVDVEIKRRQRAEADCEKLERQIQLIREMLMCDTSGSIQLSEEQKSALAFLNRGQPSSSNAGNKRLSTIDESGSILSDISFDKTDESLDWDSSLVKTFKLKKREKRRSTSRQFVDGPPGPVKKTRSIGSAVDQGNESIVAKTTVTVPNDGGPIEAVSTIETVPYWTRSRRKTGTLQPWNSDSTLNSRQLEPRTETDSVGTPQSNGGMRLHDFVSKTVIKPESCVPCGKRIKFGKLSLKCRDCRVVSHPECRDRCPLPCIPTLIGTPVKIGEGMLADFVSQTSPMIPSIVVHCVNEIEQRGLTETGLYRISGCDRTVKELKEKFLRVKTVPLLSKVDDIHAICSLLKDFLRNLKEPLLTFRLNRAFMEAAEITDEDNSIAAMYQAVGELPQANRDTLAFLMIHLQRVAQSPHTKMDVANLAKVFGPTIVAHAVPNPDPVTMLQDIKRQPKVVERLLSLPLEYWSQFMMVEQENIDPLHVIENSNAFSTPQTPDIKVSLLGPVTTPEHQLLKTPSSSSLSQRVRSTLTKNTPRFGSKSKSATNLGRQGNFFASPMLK

[5] = target: T3, Calpain-2 catalytic subunit (Sus scrofa, UniProt P43367); assay: pig calpain II inhibitor potency, dose response, biochemical, fluorogenic peptide substrate (AID 1420); assay type: functional
T3 sequence (P43367 whole entry): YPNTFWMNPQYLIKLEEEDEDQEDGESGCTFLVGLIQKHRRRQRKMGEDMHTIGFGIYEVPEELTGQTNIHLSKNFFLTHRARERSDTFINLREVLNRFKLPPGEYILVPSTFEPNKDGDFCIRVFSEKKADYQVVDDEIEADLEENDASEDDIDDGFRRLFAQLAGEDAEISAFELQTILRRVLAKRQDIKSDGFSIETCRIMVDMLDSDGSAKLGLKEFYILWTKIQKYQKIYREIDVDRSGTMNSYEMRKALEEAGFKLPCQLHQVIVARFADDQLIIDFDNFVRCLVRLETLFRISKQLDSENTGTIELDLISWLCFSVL

Vero = Vero cell cytotoxicity, cytotoxicity control for flavivirus capping enzyme inhibitors (AID 588742); assay type: functional; details: Chlorocebus sabaeus
[6] = target: T4, Probable nicotinate-nucleotide adenylyltransferase (Staphylococcus aureus (strain N315), UniProt P65502); assay type: functional, Staphylococcus aureus subsp. aureus N315;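 for IC50 Mean: confirmatory dose-response retesting of NadD inhibitor hits first found in an ultra-high-throughput screen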
[7] = target: T4, Probable nicotinate-nucleotide adenylyltransferase; assay type: functional, Staphylococcus aureus subsp. aureus N315; details: read-out: IC50_Mean
[8] = inhibitors of Vif binding to APOBEC3G peptide, primary screen, biochemical, TR-FRET, GST-Vif 1-94, biotin-A3G peptide, dose response retest (AID 1117319); assay type: functional;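 note: TR-FRET signal of purified GST-Vif binding a biotinylated A3G peptide; inhibitors lower the FRET signal by blocking Vif and A3G binding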
[9] = target: Peroxisome proliferator-activated receptor gamma/Nuclear receptor coactivator 2 (Homo sapiens, UniProt P37231); assay type: functional;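 note: agonist potency for raising coactivator recruitment to the receptor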
[10] = target: Peroxisome proliferator-activated receptor gamma/Nuclear receptor coactivator 1 (Homo sapiens, UniProt P37231); assay type: functional;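 note: agonist potency as compounds enhance coactivator SRC-1 recruitment to PPARgamma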
[11] = target: Peroxisome proliferator-activated receptor gamma/Nuclear receptor coactivator 3 (Homo sapiens, UniProt P37231); assay type: functional;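 note: agonist potency for raising coactivator recruitment to the receptor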
[12] = Luminescence Cell-Based Dose Confirmation HTS to Identify Activators of 5'UTR Stem-Loop Driven Alpha-Synuclein mRNA Translation in H4 Neuroglioblastoma Cells. [Related pubchem assays: 1829 (Project Summary), 1814 (Primary HTS)]; assay type: functional
[13] = Luminescence Cell-Based Dose Response HTS to Identify Activators of Luciferase Translation or Activity in H4 […] Cells. [Related pubchem assays: 1829 (Project Summary), 1814 (Primary HTS)]; assay type: functional
H4 = assay: Luminescence Cell-Based Dose Response HTS to Identify Activators of 5'UTR Stem-Loop Driven Prion Protein mRNA Translation in H4 Neuroglioblastoma Cells. [Related pubchem assays: 1829 (Project Summary), 1814 (Primary HTS)]; assay type: functional; details: Homo sapiens
[14] = target: Mitogen-activated protein kinase 10 (Homo sapiens, UniProt P53779); assay: Dose response biochemical screening assay for inhibitors of c-Jun N-Terminal Kinase 3 (JNK3). [Related pubchem assays: 746 ]
[15] = inhibitors of intracellular T. cruzi replication, confirmation, NIH3T3 host cells, beta-gal luminescence (AID 2044); assay type: functional, cell-based;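 note: intracellular parasites grown in NIH/3T3 mouse fibroblasts as host cells; luminescent beta-galactosidase reporter signal from transgenic T. cruzi replicating inside host cells; inhibitors lower the luminescence signal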
[16] = cytotoxicity toward NIH3T3 fibroblasts, dose response, counter-screen, cell-based, ATP luminescence, mouse fibroblasts (AID 2010); assay type: functional;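 note: cells exposed to compound for about 90 hours before reading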
[17] = target: T5, Short transient receptor potential channel 4 (Mus musculus, UniProt Q9QUQ5); assay: mouse TRPC4 channel activators, dose response, cell-based, HEK293 TRPC4/mu-opioid, Fluo-4 calcium (AID 434937); assay type: functional
T5 sequence (Q9QUQ5 whole entry): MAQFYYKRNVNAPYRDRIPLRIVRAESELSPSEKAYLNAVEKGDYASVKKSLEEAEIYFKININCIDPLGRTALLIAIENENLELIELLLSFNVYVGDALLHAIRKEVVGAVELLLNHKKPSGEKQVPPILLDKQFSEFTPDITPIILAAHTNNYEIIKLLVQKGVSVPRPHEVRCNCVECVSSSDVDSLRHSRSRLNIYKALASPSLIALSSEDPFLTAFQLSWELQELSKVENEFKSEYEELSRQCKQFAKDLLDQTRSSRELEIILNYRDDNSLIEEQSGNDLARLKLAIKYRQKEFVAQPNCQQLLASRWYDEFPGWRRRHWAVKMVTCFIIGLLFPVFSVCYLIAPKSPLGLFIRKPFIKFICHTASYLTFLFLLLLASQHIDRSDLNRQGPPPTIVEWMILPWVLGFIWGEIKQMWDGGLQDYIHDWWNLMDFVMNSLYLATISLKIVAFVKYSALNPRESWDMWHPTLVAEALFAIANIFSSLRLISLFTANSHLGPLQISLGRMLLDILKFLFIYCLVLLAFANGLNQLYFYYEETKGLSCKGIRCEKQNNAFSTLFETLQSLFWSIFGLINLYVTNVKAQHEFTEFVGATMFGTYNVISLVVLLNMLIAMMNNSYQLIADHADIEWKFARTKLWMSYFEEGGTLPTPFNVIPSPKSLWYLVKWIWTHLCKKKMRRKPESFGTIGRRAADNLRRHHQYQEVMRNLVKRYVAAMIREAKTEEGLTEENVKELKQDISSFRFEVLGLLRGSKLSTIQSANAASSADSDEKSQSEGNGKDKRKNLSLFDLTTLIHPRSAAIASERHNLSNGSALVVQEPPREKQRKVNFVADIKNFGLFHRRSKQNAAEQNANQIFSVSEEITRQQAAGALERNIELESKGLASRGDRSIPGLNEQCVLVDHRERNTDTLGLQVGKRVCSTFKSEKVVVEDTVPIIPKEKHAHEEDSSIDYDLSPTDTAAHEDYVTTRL

Cytochrome P450 2C19 = Cytochrome P450 2C19 (Homo sapiens, UniProt P33261); assay: Cytochrome panel assay with activity outcomes. Panel member name: p450-cyp2c19 Compounds with AC50 equal or less than 10 uM are considered active; assay type: functional
[18] = target: T6, DNA repair protein RAD52 homolog (Homo sapiens, UniProt P43351); assay type: functional, biochemical
T6 sequence (P43351 whole entry): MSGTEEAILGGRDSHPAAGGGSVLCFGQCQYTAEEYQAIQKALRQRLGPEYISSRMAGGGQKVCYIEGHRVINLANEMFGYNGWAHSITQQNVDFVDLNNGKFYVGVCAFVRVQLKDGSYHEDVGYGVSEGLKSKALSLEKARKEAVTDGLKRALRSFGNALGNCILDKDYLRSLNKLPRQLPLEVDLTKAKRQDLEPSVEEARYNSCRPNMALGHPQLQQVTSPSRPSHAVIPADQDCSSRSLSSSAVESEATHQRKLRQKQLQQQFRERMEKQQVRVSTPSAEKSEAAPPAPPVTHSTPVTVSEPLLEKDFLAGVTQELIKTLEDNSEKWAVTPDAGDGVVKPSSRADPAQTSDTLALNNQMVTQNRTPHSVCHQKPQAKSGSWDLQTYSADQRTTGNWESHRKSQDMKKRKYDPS

cells [19] = assay type: functional, cell-based
cells [20] = assay type: functional, cell-based; remark: listed apart in the source
H9c2 = assay: cells; assay type: functional, cell-based; details: Rattus norvegicus, H9c2, Myocardium;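 note: confirmatory concentration-response retest of ultra-high-throughput screening hits for modulation of myocardial damage; cell death induced by hydrogen peroxide oxidative stress; compound pretreatment for 60 min then peroxide exposure for 2 h; potency is for protecting the cells against peroxide damage rather than for killing them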
[21] = target: Eukaryotic translation initiation factor 4E (Mus musculus, UniProt P63073); assay: eIF4E–eIF4G protein interaction inhibitors, dose response, biochemical, TR-FRET (AID 855); assay type: functional;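 note: potency for disrupting eIF4E binding to eIF4GI seen as loss of FRET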

Peroxisome proliferator-activated receptor gamma/Nuclear receptor coactivator 2, sequence (P37231 whole entry): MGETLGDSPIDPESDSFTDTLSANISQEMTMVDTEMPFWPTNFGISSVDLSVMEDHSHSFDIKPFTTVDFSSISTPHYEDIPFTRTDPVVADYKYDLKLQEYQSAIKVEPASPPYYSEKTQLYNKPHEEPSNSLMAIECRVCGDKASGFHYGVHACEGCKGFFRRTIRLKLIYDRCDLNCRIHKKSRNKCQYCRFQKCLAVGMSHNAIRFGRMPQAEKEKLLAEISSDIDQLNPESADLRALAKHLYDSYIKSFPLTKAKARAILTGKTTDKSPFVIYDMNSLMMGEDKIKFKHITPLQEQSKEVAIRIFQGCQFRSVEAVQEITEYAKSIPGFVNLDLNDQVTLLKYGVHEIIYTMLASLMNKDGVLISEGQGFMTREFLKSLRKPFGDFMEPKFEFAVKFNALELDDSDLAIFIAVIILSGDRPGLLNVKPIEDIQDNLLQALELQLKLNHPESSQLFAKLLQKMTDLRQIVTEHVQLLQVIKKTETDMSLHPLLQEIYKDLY
Peroxisome proliferator-activated receptor gamma/Nuclear receptor coactivator 2, sequence (Q15596 whole entry, further chain): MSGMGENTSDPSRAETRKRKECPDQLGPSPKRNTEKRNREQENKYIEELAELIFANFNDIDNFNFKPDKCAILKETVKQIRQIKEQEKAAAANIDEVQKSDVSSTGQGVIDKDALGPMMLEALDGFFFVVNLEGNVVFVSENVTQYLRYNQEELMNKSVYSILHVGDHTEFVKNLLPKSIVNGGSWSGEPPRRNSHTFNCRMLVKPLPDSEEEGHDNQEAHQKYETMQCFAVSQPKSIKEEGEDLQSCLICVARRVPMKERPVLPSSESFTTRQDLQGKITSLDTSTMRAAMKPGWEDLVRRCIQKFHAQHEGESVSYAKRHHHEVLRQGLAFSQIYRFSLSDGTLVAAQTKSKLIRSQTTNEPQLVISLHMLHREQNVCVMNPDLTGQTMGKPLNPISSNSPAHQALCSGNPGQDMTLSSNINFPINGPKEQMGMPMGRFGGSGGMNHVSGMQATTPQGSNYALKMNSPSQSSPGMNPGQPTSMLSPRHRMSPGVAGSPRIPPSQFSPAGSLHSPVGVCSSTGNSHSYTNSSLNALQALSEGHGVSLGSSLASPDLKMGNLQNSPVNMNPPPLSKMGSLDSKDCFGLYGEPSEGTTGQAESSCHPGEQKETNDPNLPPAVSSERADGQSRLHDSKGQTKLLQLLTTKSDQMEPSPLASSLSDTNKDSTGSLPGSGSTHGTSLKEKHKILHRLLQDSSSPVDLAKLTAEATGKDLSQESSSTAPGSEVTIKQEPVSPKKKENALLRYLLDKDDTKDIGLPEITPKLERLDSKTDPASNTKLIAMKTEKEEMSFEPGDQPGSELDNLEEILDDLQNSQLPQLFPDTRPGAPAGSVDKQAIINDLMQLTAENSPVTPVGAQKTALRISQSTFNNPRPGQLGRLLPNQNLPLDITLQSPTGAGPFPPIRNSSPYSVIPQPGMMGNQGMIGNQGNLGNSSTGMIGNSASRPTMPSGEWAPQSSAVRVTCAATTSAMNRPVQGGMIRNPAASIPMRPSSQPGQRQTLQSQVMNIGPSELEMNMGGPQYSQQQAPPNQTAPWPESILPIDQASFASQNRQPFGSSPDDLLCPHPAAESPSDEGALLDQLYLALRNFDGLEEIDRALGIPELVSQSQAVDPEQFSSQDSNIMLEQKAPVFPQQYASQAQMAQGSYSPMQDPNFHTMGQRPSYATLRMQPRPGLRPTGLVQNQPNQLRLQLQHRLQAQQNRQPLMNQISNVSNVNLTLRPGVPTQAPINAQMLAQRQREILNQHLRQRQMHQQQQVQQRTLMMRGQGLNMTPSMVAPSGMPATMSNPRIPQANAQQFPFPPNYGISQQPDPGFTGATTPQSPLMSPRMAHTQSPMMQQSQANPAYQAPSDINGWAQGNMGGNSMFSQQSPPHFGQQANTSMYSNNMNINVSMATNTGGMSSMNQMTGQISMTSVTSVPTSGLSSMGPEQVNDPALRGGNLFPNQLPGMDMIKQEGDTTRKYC
Peroxisome proliferator-activated receptor gamma/Nuclear receptor coactivator 3, sequence (P37231 whole entry): as the sequence (P37231 whole entry) above
Peroxisome proliferator-activated receptor gamma/Nuclear receptor coactivator 3, sequence (Q9Y6Q9 whole entry, further chain): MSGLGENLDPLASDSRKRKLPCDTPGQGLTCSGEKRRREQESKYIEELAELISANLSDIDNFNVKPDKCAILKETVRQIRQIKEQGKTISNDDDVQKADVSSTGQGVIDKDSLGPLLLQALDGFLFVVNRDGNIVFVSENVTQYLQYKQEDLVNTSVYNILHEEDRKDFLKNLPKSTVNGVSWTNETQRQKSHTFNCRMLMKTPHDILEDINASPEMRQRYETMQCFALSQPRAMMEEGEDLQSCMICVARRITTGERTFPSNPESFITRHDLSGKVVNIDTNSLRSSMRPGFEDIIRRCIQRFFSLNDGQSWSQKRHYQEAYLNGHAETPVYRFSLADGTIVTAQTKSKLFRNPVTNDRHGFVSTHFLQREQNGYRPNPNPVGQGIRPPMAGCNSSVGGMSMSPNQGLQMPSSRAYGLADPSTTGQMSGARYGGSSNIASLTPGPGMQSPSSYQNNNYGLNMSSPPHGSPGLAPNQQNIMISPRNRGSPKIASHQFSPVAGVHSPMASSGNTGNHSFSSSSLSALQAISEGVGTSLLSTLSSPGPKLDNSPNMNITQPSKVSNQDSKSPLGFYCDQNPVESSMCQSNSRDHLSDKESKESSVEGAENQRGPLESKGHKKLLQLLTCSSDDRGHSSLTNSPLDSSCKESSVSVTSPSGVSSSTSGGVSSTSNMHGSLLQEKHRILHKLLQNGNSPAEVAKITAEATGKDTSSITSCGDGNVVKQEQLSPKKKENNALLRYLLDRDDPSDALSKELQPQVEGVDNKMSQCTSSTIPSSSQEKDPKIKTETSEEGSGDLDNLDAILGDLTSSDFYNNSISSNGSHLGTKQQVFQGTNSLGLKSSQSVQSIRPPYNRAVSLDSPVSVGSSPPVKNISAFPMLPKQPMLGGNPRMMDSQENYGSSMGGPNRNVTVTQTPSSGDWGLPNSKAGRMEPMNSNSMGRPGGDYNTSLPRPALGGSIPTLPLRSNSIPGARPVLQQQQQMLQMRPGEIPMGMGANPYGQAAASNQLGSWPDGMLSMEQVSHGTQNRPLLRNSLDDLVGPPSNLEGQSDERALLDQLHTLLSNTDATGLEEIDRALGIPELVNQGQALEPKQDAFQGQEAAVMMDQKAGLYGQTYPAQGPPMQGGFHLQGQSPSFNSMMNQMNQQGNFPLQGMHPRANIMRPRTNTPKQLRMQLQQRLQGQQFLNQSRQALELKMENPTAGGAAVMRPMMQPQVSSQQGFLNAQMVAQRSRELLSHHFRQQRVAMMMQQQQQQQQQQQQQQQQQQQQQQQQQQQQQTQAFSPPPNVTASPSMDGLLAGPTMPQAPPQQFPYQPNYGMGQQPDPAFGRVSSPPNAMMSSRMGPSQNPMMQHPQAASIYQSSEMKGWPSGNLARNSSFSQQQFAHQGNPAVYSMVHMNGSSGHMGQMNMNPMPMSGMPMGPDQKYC
Mitogen-activated protein kinase 10, sequence (P53779 whole entry): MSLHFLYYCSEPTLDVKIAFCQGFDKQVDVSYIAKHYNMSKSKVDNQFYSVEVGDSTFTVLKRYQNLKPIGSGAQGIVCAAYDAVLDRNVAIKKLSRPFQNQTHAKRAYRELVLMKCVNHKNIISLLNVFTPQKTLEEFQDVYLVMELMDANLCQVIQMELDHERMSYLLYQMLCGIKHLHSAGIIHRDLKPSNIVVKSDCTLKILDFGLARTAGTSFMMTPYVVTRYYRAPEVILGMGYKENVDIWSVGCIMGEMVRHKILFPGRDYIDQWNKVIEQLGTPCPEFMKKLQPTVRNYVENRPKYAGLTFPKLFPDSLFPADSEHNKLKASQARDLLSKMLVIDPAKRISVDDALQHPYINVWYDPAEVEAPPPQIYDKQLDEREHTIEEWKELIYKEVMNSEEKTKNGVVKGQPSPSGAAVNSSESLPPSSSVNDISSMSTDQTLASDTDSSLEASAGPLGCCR
T4 sequence (P65502 whole entry): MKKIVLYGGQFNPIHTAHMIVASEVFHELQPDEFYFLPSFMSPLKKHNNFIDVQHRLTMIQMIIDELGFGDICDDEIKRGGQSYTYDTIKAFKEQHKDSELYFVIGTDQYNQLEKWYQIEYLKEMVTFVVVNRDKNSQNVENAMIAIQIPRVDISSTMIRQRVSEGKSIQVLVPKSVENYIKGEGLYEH
Cytochrome P450 2C19, sequence (P33261 whole entry): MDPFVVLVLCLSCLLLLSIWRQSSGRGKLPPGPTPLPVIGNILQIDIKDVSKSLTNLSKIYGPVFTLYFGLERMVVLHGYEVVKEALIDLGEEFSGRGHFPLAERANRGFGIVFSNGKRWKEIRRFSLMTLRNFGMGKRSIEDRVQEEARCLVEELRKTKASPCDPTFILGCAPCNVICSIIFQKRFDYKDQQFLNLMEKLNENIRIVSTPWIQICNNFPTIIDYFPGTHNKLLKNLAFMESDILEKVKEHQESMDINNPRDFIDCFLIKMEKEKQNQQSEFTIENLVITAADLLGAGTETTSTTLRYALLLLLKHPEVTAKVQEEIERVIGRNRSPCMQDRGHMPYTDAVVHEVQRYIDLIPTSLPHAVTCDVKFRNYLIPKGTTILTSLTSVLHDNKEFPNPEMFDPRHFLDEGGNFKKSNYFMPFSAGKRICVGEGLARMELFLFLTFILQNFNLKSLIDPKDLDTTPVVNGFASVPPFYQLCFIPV

COc1cc(C=C2C(=O)c3ccccc3C2=O)cc(OC)c1OC
IC50 [1]: 1.59 µM (active)
EC50 [2]: > 53 µM (inactive)
IC50 [3]: 1.46 µM (active)
IC50 [4]: 126 µM (active)

CC(C)n1c(=S)[nH]c2scc(-c3cccs3)c2c1=O
IC50 [5]: 18.2 µM (not active)
CC50 (Vero): > 40 µM (active)
IC50 [6]: 13.5 µM (active)
IC50 [7]: 34 µM (active)

O=C(N/C(=C/c1ccc(Cl)cc1)c1nc2ccccc2[nH]1)c1ccco1
IC50 [8]: > 100 µM (active)

CC(C)CNC(=O)COC(=O)c1ccccc1OCC(=O)Nc1ccc(Br)cc1
EC50 [9]: > 79.4 µM (not active)
EC50 [10]: > 79.4 µM (not active)
EC50 [11]: > 79.4 µM (not active)

COc1ccccc1OCc1nc2ccccc2[nH]1
EC50 [9]: > 79.4 µM (not active)
EC50 [10]: > 79.4 µM (not active)
EC50 [11]: > 79.4 µM (not active)

Cc1ccc(-c2csc(NC(=O)Cc3cccs3)n2)cc1C
EC50 [12]: 10.2 µM (active)
EC50 [13]: 28.7 µM (active)
EC50 (H4): 15.1 µM (active)
IC50 [8]: > 100 µM (active)

Cn1ncc2c(NCc3ccccc3)ncnc21
IC50 [14]: > 31 µM (not active)

O=C(C1=C[C@@H](c2ccc(C(F)(F)F)cc2)C[C@@H](OCc2ccc(CO)cc2)O1)N1CCOCC1
EC50 [9]: > 79.4 µM (not active)
EC50 [10]: > 79.4 µM (not active)
EC50 [11]: > 79.4 µM (not active)

O=C1CC(c2ccco2)CC(=O)C1=CNc1ccc(Br)cc1 (configuration not stated)
IC50 [8]: > 100 µM (active)

c1ccc2c(c1)CC/C2=N/Nc1nc2ccccc2[nH]1
EC50 [9]: > 79.4 µM (not active)
EC50 [10]: > 79.4 µM (not active)
EC50 [11]: > 79.4 µM (not active)
EC50 [15]: 2.6 µM (active)
EC50 [16]: > 30 µM (not active)

COc1ccc(COC(=O)c2[nH]nc3ccccc23)cc1F
IC50 [14]: 11.4 µM (not active)

Cc1sc(NC(=O)c2ccccc2)c(C(=O)NCCN(C)C)c1C
EC50 [17]: 3.35 µM (active)
AC50 (Cytochrome P450 2C19): inconclusive
IC50 [8]: > 100 µM (active)

COc1cc2c(cc1OC)CN1CCc3cc(OC)c(OC)cc3C1C2 (configuration not stated)
AC50 [18]: 4.49 µM (active)

O=C(N[C@H](C(=O)N1CCC[C@H]1C(=O)NCCc1ccccc1Cl)c1ccccc1)c1cccs1
IC50 (cells [19]): > 29.9 µM (inactive)
EC50 (cells [20]): > 29.9 µM (inactive)

CN(C)CCCNc1ccc(-c2nnc(O)c3ccccc23)cc1[N+](=O)[O-]
IC50 (H9c2): 13.9 µM (active)
AC50 [18]: 20.5 µM (active)

CN1CCN(CCCNC(=O)c2ccc(/C=C3\Sc4ccccc4N(Cc4ccccc4F)C3=O)cc2)CC1
EC50 [15]: 0.3 µM (active)
EC50 [16]: 6.91 µM (active)
IC50 [21]: 50 µM (inactive)
AC50 [18]: 5.23 µM (active)

From ChEMBL document CHEMBL1201862, “PubChem BioAssay data set” (2004)
